The source of these data is US20150157742A1, “[…] OF BIOLOGICAL COMPOUNDS LABELED WITH THE ALPHA EMITTER Ac-225” (priority 2013, published 2015).

This experiment concerns K422 lymphoma cells. Description: Saturation binding assay (Scatchard analysis) on K422 lymphoma cells. To be noted: Scatchard analysis (FIG. 3), read-out: binding affinity. An excerpt: Vos: “In vitro and in vivo evaluation of direct rhenium-188-labeled anti-CD52 monoclonal antibody alemtuzumab for radioimmunotherapy of B-cell chronic lymphocytic leukemia.” (Nuclear Medicine and Biology 35 (2008) 599-604)].

Take Ac-225-DOTA-rituximab: the Kd was 30 nM.
